Patent publication US11345700B2, “Methods of preparing inhibitors of influenza viruses replication” (priority 2013, dated 2022)
Like-named read-outs stand apart in the source and are kept apart here. Marks after values point to notes of the source that are not given here.

What was measured:
[1] = Human influenza challenge: safety assessment, adverse events; format: in vivo, healthy volunteers (humans)
Description: A list of adverse events occurring in ≥10% of subjects in any treatment group is presented (Table 29). Influenza-like illness was the most frequently reported adverse event, and was reported by an approximately equal proportion of subjects in the placebo and Compound (1) groups.

[2] = system: influenza A virus; assay: Mouse influenza A model: prophylactic dose response and delayed treatment, survival and body weight loss; format: in vivo, mice
Description: The prophylactic dose response of Compound (1) was investigated in the mouse influenza A model. […] All of the mice that received vehicle alone succumbed to the infection by study day 9 and had lost, on average, ˜32% of their body weight (BW).
All vehicle controls succumbed to disease by study days 8 or 9.

[3] = system: Influenza A/Victoria/3/75 (H3N2) virus; format: in vivo, BALB/c mice
[4] = system: influenza A/Wisconsin/67/2005 (H3N2) challenge strain virus; assay: Human influenza challenge: rates of seroconversion; format: in vivo, healthy volunteers (humans); conditions: for Serology Sero-conversion, n/N: ≥4-fold increase in anti-influenza antibody titer at Follow-up Visit vs baseline
[5] = system: influenza A; assay: Mouse model of influenza A: lung viral titers; format: in vivo, mice; conditions: for Log10 Reduction vs. Vehicle: study day 6; for Lung Viral Titer: titers on study day 6
[6] = treatment start +24 h relative to infection, 1 mg/kg BID
[7] = treatment start +24 h relative to infection, 3 mg/kg BID
[8] = treatment start +24 h relative to infection, 10 mg/kg BID
[9] = treatment start +48 h relative to infection, 1 mg/kg BID
[10] = treatment start +48 h relative to infection, 3 mg/kg BID
[11] = treatment start +48 h relative to infection, 10 mg/kg BID
[12] = treatment start +72 h relative to infection, 1 mg/kg BID
[13] = treatment start +72 h relative to infection, 3 mg/kg BID
[14] = treatment start +72 h relative to infection, 10 mg/kg BID
[15] = treatment start +96 h relative to infection, 3 mg/kg BID
[16] = treatment start +96 h relative to infection, 10 mg/kg BID
[17] = treatment start +120 h relative to infection, 3 mg/kg BID
[18] = treatment start +120 h relative to infection, 10 mg/kg BID
[19] = treatment start −2 h relative to infection, 0.1 mg/kg BID
[20] = treatment start −2 h relative to infection, 0.3 mg/kg BID
[21] = treatment start −2 h relative to infection, 1 mg/kg BID
[22] = treatment start −2 h relative to infection, 3 mg/kg BID
[23] = treatment start −2 h relative to infection, 10 mg/kg BID
[24] = 1 mg/kg p.o. twice a day for 10 days starting 2 hours prior to virus exposure
[25] = 3 mg/kg p.o. twice a day for 10 days starting 2 hours prior to virus exposure
[26] = 10 mg/kg p.o. twice a day for 10 days starting 2 hours prior to virus exposure
[27] = Pooled Compound (1) dose groups
[28] = Study 1, 30 mg/kg BID from 24 h post infection for 5 days
[29] = Study 2, 3 mg/kg BID from 24 h post infection for 5 days
[30] = Study 2, 10 mg/kg BID from 24 h post infection for 5 days
[31] = Study 2, 30 mg/kg BID from 24 h post infection for 5 days

O=C(O)[C@H]1[C@H]2CC[C@H](CC2)[C@@H]1Nc1nc(-c2c[nH]c3ncc(F)cc23)ncc1F [Compound (1)]
Adverse event: Rhinorrhea ([1]; Pooled Compound (1), N = 72): 3 (4.2) n(%)
Adverse event: Spirometry abnormal ([1]; Pooled Compound (1), N = 72): 10 (13.9) n(%)
Adverse event: Tension Headache ([1]; Pooled Compound (1), N = 72): 3 (4.2) n(%)
discontinuations due to Compound (1)-related adverse events; serious adverse events ([1]; healthy volunteers, five daily doses): no discontinuations
alanine aminotransferase (ALT) ([1]; observed in both placebo and Compound (1) recipients): elevations in alanine aminotransferase (ALT) were observed
survival (mice) ([2]; 0.3 mg/kg BID for 10 days, initiated 2 h prior to infection): 2/8
Percent Body Weight Loss on Study Day 8 [2, 6]: −23.4%
Percent Survival [2, 6]: 100%
Percent Body Weight Loss on Study Day 8 [2, 7]: −14.2%
Percent Survival [2, 7]: 100%
Percent Body Weight Loss on Study Day 8 [2, 8]: −6.2%
Percent Survival [2, 8]: 100%
Percent Body Weight Loss on Study Day 8 [2, 9]: −22.5%
Percent Survival [2, 9]: 100%
Percent Body Weight Loss on Study Day 8 [2, 10]: −10.9%
Percent Survival [2, 10]: 100%
Percent Body Weight Loss on Study Day 8 [2, 11]: −7.1%
Percent Survival [2, 11]: 100%
Percent Body Weight Loss on Study Day 8 [2, 12]: −29.4%
Percent Survival [2, 12]: 100%
Percent Body Weight Loss on Study Day 8 [2, 13]: −23.2%
Percent Survival [2, 13]: 100%
Percent Body Weight Loss on Study Day 8 [2, 14]: −17.4%
Percent Survival [2, 14]: 100%
Percent Body Weight Loss on Study Day 8 [2, 15]: −27.3%
Percent Survival [2, 15]: 100%
Percent Body Weight Loss on Study Day 8 [2, 16]: −25.5%
Percent Survival [2, 16]: 100%
Percent Body Weight Loss on Study Day 8 [2, 17]: −32.6%
Percent Survival [2, 17]: 12.5%
Percent Body Weight Loss on Study Day 8 [2, 18]: −34.4%
Percent Survival [2, 18]: 37.5%
Percent Body Weight Loss on Study Day 8 [2, 19]: −31.9%
Percent Survival [2, 19]: 0%
Percent Body Weight Loss on Study Day 8 [2, 20]: −30.4%
Percent Survival [2, 20]: 25%
Percent Body Weight Loss on Study Day 8 [2, 21]: −16.8%
Percent Survival [2, 21]: 100%
Percent Body Weight Loss on Study Day 8 [2, 22]: −8.7%
Percent Survival [2, 22]: 100%
Percent Body Weight Loss on Study Day 8 [2, 23]: −2.8%
Percent Survival [2, 23]: 100%
MDD ± SD (mean day of death of mice that died on or before day 21) [3, 24]: 9.8
Mean Lung Parameters (Day 6): Score (hemorrhage score 0-4) [3, 24]: 3.2
Mean Lung Parameters (Day 6): Virus Titer [3, 24]: 7.3 Log10 CCID50/g
Mean Lung Parameters (Day 6): Weight [3, 24]: 274 mg
Survivors/Total [3, 24]: 4/10
Mean Lung Parameters (Day 6): Score (hemorrhage score 0-4) [3, 25]: 3.3
Mean Lung Parameters (Day 6): Virus Titer [3, 25]: 7.2 Log10 CCID50/g
Mean Lung Parameters (Day 6): Weight [3, 25]: 260 mg
Mean Lung Parameters (Day 6): Score (hemorrhage score 0-4) [3, 26]: 0.1
Mean Lung Parameters (Day 6): Virus Titer [3, 26]: 6.1 Log10 CCID50/g
Mean Lung Parameters (Day 6): Weight [3, 26]: 164 mg
Serology Sero-conversion (%) ([4]; 100 mg QD): (69%)
Serology Sero-conversion, n/N ([4]; 100 mg QD): 11/16
Serology Sero-conversion (%) ([4]; 400 mg QD): (47%)
Serology Sero-conversion, n/N ([4]; 400 mg QD): 9/19
Serology Sero-conversion (%) ([4]; 900/600 mg): (68%)
Serology Sero-conversion, n/N ([4]; 900/600 mg): 13/19
Serology Sero-conversion (%) ([4]; 1200/600 mg): (67%)
Serology Sero-conversion, n/N ([4]; 1200/600 mg): 12/18
Serology Sero-conversion (%) [4, 27]: (63%)
Serology Sero-conversion, n/N [4, 27]: 45/72
Log10 Reduction vs. Vehicle [5, 28]: −2.25***
Lung Viral Titer [5, 28]: 3.95 Log10 TCID50
Log10 Reduction vs. Vehicle [5, 29]: −1.04
Lung Viral Titer [5, 29]: 5.24*** Log10 TCID50
Log10 Reduction vs. Vehicle [5, 30]: −1.08
Lung Viral Titer [5, 30]: 5.20*** Log10 TCID50
Log10 Reduction vs. Vehicle [5, 31]: −1.75
Lung Viral Titer [5, 31]: 4.53*** Log10 TCID50
